Measurements: ChEMBL document CHEMBL5712075, “The histone methyltransferase EZH2 as a novel prosurvival factor in clinically aggressive chronic lymphocytic leukemia” (Oncotarget, 2016)

Columns and labels:
[1] = target: Histone-lysine N-methyltransferase EZH2 (Homo sapiens) (UniProt Q15910); assay: Inhibition of EZH2 in human CD19+ B cells assessed as decrease in H3K27me3 levels measured as percentage abundance at 4 uM after 2 days by Western blot analysis relative to control; format: cell-based; design: scale not given: the % may be the effect or the level left; conditions: CD19 positive B cell, time 2.0 day
[2] = target: Histone-lysine N-methyltransferase EZH2 (Homo sapiens) (UniProt Q15910); assay: Inhibition of EZH2 in human CD19+ B cells assessed as decrease in H3K27me3 levels measured as percentage abundance at 4 uM after 4 days by Western blot analysis relative to control; format: cell-based; design: scale not given: the % may be the effect or the level left; conditions: CD19 positive B cell, time 4.0 day
[3] = target: Histone-lysine N-methyltransferase EZH2 (Homo sapiens) (UniProt Q15910); assay: Inhibition of EZH2 in human CD19+ B cells assessed as decrease in H3K27me3 levels measured as percentage abundance at 4 uM by Western blot analysis relative to control; format: cell-based; design: scale not given: the % may be the effect or the level left; conditions: CD19 positive B cell
[4] = target: Histone-lysine N-methyltransferase EZH2 (Homo sapiens) (UniProt Q15910); assay: Inhibition of EZH2 in human CD19+ B cells assessed as decrease in H3K27me3 levels measured as percentage abundance at 4 uM after 8 days by Western blot analysis relative to control; format: cell-based; design: scale not given: the % may be the effect or the level left; conditions: CD19 positive B cell, time 8.0 day
[5] = target: Histone-lysine N-methyltransferase EZH2 (Homo sapiens) (UniProt Q15910); assay: Inhibition of EZH2 in human CD19+ B cells assessed as decrease in H3K27me3 levels measured as percentage abundance at 4 uM after 10 days by Western blot analysis relative to control; format: cell-based; design: scale not given: the % may be the effect or the level left; conditions: CD19 positive B cell, time 10.0 day
[6] = target: Histone-lysine N-methyltransferase EZH2 (Homo sapiens) (UniProt Q15910); assay: Inhibition of EZH2 in human CD19+ B cells assessed as decrease in H3K27me3 levels measured as percentage abundance at 4 uM after 6 days by Western blot analysis relative to control; format: cell-based; design: scale not given: the % may be the effect or the level left; conditions: CD19 positive B cell, time 6.0 day
[7] = target: Histone-lysine N-methyltransferase EZH2 (Homo sapiens) (UniProt Q15910); assay: Inhibition of EZH2 in human CD19+ B cells assessed as decrease in cell viability at 4 uM after 5 to 13 days by annexin-V/PI staining based flow cytometry; conditions: CD19 positive B cell, time 5-13 day, TDE = time-dependent effect

Histone-lysine N-methyltransferase EZH2 (Homo sapiens), sequence (Q15910 whole entry, looked up): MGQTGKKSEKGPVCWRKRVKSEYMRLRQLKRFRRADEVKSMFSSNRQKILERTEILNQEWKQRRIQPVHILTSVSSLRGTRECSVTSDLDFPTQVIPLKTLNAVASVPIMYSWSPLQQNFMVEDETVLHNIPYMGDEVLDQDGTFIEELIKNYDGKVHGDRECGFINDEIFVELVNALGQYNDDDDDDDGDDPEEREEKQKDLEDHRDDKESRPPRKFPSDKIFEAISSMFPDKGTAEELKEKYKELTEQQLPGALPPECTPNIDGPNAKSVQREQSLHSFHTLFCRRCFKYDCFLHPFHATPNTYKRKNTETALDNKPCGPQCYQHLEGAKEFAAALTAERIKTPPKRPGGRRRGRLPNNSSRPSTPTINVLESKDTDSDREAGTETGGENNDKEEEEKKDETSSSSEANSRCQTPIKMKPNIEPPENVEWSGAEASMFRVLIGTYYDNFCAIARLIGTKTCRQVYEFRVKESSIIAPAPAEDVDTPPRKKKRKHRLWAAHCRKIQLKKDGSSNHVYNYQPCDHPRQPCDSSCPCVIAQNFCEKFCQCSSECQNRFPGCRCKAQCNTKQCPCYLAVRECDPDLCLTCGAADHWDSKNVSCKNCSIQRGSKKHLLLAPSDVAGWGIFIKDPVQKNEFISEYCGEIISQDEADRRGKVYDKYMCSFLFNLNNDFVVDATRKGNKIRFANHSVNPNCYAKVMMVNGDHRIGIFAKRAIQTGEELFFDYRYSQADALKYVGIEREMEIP

CCCc1cc(C)[nH]c(=O)c1CNC(=O)c1cc(-c2ccnc(N3CCN(C)CC3)c2)cc2c1cnn2C(C)C
Activity [1]: 99.6% | Activity [2]: 100% | Activity [3]: 66% | Activity [4]: 65.1% | Activity [5]: 65.2% | Activity [6]: 99.5% | inhibition [7]: Tde
